Results taken from patent US12473282B2, “Biphenyl fluorine double bond derivative, preparation method therefor, and pharmaceutical application thereof” (Abbisko Therapeutics Co., Ltd., priority 2020, dated 2025).

Experiment: Jurkat reporter gene cellular assay
Assay type: cell-based
Conditions: Homo sapiens; Jurkat/NF-κB-luc/PD1 + Raji-PD-L1 coculture, OKT3 1 μg/mL, 6 hrs, activation fold; read-out: Cell Activity EC50
Protocol: The effect of compounds of the examples of the present invention and positive compounds on the interaction between PD-1 and PD-L1 expressed on cell surfaces, and the related influence on T cell functions, were determined by a Jurkat reporter gene cellular assay.
Briefly, the reporter gene plasmid of NF-κB-luc and the plasmid of human PD-1 were transfected into Jurkat cells to establish a stably transfected cell line capable of stably expressing both PD-1 and NF-κB-Luc reporter genes; the expression level of PD-1 on the cell surface was confirmed by flow cytometry; and the expression of the reporter gene was confirmed via the response of the reporter gene stimulated by OKT-3 and Raiji cells.
In addition, the plasmid of human PD-L1 was transfected into Raji cells to obtain a cell line capable of stably expressing PD-L1. Jurkat/NF-κB-luc/PD1 cells and Raji-PD-L1 cells were then cocultured and stimulated with OKT-3. On this basis, the compounds were added, and the enhancement of the signal pathway of T cell activation by the inhibitory effect of the compounds on the interaction between PD-1 and PD-L1 was evaluated by readings of reporter gene responses. The specific experimental process was as follows: • 1. 30 μL of compound or antibody solution was added to each well of a white 96-well plate (corning, 3610) at different diluted concentrations, and 10 μL of OKT3 (Biolegend, 317326) was then added (the final concentration of OKT3: 1 μg/mL); • 2. 20 μL of Raji-PD-L1 cell suspension was added to each well with 5*10^4 cells for each well, and was incubated in an incubator for 20 min; • 3. 20 μL of Jurkat/NF-Kb-luc/PD-1 cell suspension was added to each well with 5*10^4 cells for each well, and well mixed, and 6 hrs later, Bright-glo (Promega, E2620) was applied and plates were read on Envision; • 4. The reading of each well treated with the compound was compared with the reading of each well treated with DMSO to obtain the activation fold of the compound; • 5. EC50 values of compounds and positive compounds of the examples of the present invention were determined by non-linear regression analysis of activation folds at different compound concentrations.

SMILES	EC50 [nM]
Cc1c(/C=C(\F)c2nc3c(n2C)CCNC3)cccc1-c1cccc(NC(=O)c2nc3c(n2C)CCN(CCC24CCC(C(=O)O)(CC2)C4)C3)c1C [Example 2, (Z)-4-(2-(2-((3′-(2-fluoro-2-(1-methyl-4,5,6,7-tetrahydro-1H-imidazo [4,5-c]pyridin-2-yl)vinyl)-2,2′-dimethyl-[1,1′-biphenyl]-3-yl)carbamoyl)-1-methyl-1,4,6,7-tetrahydro-5H-imidazo[4,5-c]pyridin-5-yl)ethyl)bicyclo[2.2.1]heptane-1-carboxylic acid]	244
Cc1c(/C=C(\F)c2nc3c(n2C)CCN(C[C@@H](C)O)C3)cccc1-c1cccc(NC(=O)c2nc3c(n2C)CCN(CCC24CCC(C(=O)O)(CC2)C4)C3)c1C [Example 3, (R,Z)-4-(2-(2-((3′-(2-fluoro-2-(5-(2-hydroxypropyl)-1-methyl-4,5,6,7-tetrahydro-1H-imidazo[4,5-c]pyridin-2-yl)vinyl)-2,2′-dimethyl-[1,1′-biphenyl]-3-yl)carbamoyl)-1-methyl-1,4,6,7-tetrahydro-5H-imidazo[4,5-c]pyridin-5-yl)ethyl)bicyclo[2.2.1]heptane-1-carboxylic acid]	95.2
Cc1c(/C=C(\F)c2nc3c(n2C)CCN(C(C)C)C3)cccc1-c1cccc(NC(=O)c2nc3c(n2C)CCN(CCC24CCC(C(=O)O)(CC2)C4)C3)c1Cl [Example 4, (Z)-4-(2-(2-((2-chloro-3′-(2-fluoro-2-(5-isopropyl-1-methyl-4,5,6,7-tetrahydro-1H-imidazo[4,5-c]pyridin-2-yl)vinyl)-2′-methyl-[1,1′-biphenyl]-3-yl)carbamoyl)-1-methyl-1,4,6,7-tetrahydro-5H-imidazo [4,5-c]pyridin-5-yl)ethyl)bicyclo[2.2.1]heptane-1-carboxylic acid]	289
Cc1c(/C=C(\F)c2nc3c(n2C)CCN(CCC24CCC(C(=O)O)(CC2)C4)C3)cccc1-c1cccc(NC(=O)c2nc3c(n2C)CCN(C(C)C)C3)c1C [Example 5, (Z)-4-(2-(2-(1-fluoro-2-(3′-(5-isopropyl-1-methyl-4,5,6,7-tetrahydro-1H-imidazo[4,5-c]pyridine-2-carboxamido)-2,2′-dimethyl-[1,1′-biphenyl]-3-yl)vinyl)-1-methyl-1,4,6,7-tetrahydro-5H-imidazo[4,5-c]pyridin-5-yl)ethyl)bicyclo[2.2.1]heptane-1-carboxylic acid]	719
Cc1c(/C=C(\F)c2nc3c(n2C)CCN(C(C)C)C3)cccc1-c1cccc(NC(=O)c2nc3c(n2C)CCN(CC24CCC(C(=O)O)(CC2)C4)C3)c1C [Example 6, (Z)-4-((2-((3′-(2-fluoro-2-(5-isopropyl-1-methyl-4,5,6,7-tetrahydro-1H-imidazo[4,5-c]pyridin-2-yl)vinyl)-2,2′-dimethyl-[1,1′-biphenyl]-3-yl)carbamoyl)-1-methyl-1,4,6,7-tetrahydro-5H-imidazo[4,5-c]pyridin-5-yl)methyl)bicyclo[2.2.1]heptane-1-carboxylic acid]	973
Cc1c(/C=C(\F)c2cc(C3CC3)c(CN3CCCC[C@H]3C(=O)O)cn2)cccc1-c1cccc(NC(=O)c2nc3c(n2C)CCN(C(C)C)C3)c1C [Example 18, (S,Z)-1-((4-cyclopropyl-6-(1-fluoro-2-(3′-(5-isopropyl-1-methyl-4,5,6,7-tetrahydro-1H-imidazo[4,5-c]pyridine-2-carboxamido)-2,2′-dimethyl-[1,1′-biphenyl]-3-yl)vinyl)pyridin-3-yl)methyl)piperidine-2-carboxylic acid]	249
Cc1c(/C=C(\F)c2cc(C3CC3)c(CN3CCCC[C@H]3C(=O)O)cn2)cccc1-c1cccc(NC(=O)c2nc3c(n2C)CCN(C[C@@H](C)O)C3)c1C [Example 19, (S)-1-((4-cyclopropyl-6-((Z)-1-fluoro-2-(3′-(5-((R)-2-hydroxypropyl)-1-methyl-4,5,6,7-tetrahydro-1H-imidazo[4,5-c]pyridine-2-carboxamido)-2,2′-dimethyl-[1,1′-biphenyl]-3-yl)vinyl)pyridin-3-yl)methyl)]	192
COc1cc(/C(F)=C/c2cccc(-c3cccc(NC(=O)c4nc5c(n4C)CCN(CCC46CCC(C(=O)O)(CC4)C6)C5)c3Cl)c2Cl)ncc1CN1CC(O)C1 [Example 42, (Z)-4-(2-(2-((2,2′-dichloro-3′-(2-fluoro-2-(5-((3-hydroxyazetidin-1-yl)methyl)-4-methoxypyridin-2-yl)vinyl)-[1,1′-biphenyl]-3-yl)carbamoyl)-1-methyl-1,4,6,7-tetrahydro-5H-imidazo[4,5-c]pyridin-5-yl)ethyl)bicyclo[2.2.1]heptane-1-carboxylic acid]	118
COc1cc(/C(F)=C/c2cccc(-c3cccc(NC(=O)c4nc5c(n4C)CCN(CCC46CCC(C(=O)O)(CC4)C6)C5)c3Cl)c2Cl)ncc1CNCCCO [Example 43, (Z)-4-(2-(2-((2,2′-dichloro-3′-(2-fluoro-2-(5-(((3-hydroxypropyl)amino)methyl)-4-methoxypyridin-2-yl)vinyl)-[1,1′-biphenyl]-3-yl)carbamoyl)-1-methyl-1,4,6,7-tetrahydro-5H-imidazo[4,5-c]pyridin-5-yl)ethyl)bicyclo[2.2.1]heptane-1-carboxylic acid]	137
COc1cc(/C(F)=C/c2cccc(-c3cccc(NC(=O)c4nc5c(n4C)CCN(CCC46CCC(C(=O)O)(CC4)C6)C5)c3Cl)c2Cl)ncc1CN[C@@H](C)CO [Example 44, (S,Z)-4-(2-(2-((2,2′-dichloro-3′-(2-fluoro-2-(5-(((1-hydroxypropan-2-yl)amino)methyl)-4-methoxypyridin-2-yl)vinyl)-[1,1′-biphenyl]-3-yl)carbamoyl)-1-methyl-1,4,6,7-tetrahydro-5H-imidazo[4,5-c]pyridin-5-yl)ethyl)bicyclo[2.2.1]heptane-1-carboxylic acid]	105
COc1cc(/C(F)=C/c2cccc(-c3cccc(NC(=O)c4nc5c(n4C)CCN(CCC46CCC(C(=O)O)(CC4)C6)C5)c3Cl)c2Cl)ncc1CN[C@H]1C[C@@H](O)C1 [Example 45, 4-(2-(2-((2,2′-dichloro-3′-((Z)-2-fluoro-2-(5-((((1S,3S)-3-hydroxycyclobutyl)amino)methyl)-4-methoxypyridin-2-yl)vinyl)-[1,1′-biphenyl]-3-yl)carbamoyl)-1-methyl-1,4,6,7-tetrahydro-5H-imidazo[4,5-c]pyridin-5-yl)ethyl)bicyclo[2.2.1]heptane-1-carboxylic acid]	114
COc1cc(/C(F)=C/c2cccc(-c3cccc(NC(=O)c4nc5c(n4C)CCN(CCC46CCC(C(=O)O)(CC4)C6)C5)c3Cl)c2Cl)ncc1CNCC(C)(C)O [Example 46, (Z)-4-(2-(2-((2,2′-dichloro-3′-(2-fluoro-2-(5-(((2-hydroxy-2-methylpropyl)amino)methyl)-4-methoxypyridin-2-yl)vinyl)-[1,1′-biphenyl]-3-yl)carbamoyl)-1-methyl-1,4,6,7-tetrahydro-5H-imidazo[4,5-c]pyridin-5-yl)ethyl)bicyclo[2.2.1]heptane-1-carboxylic acid]	152
COc1cc(/C(F)=C/c2cccc(-c3cccc(NC(=O)c4nc5c(n4C)CCN(CCC46CCC(C(=O)O)(CC4)C6)C5)c3Cl)c2Cl)ncc1CNC1CC1 [Example 47, (Z)-4-(2-(2-((2,2′-dichloro-3′-(2-(5-((cyclopropylamino)methyl)-4-methoxypyridin-2-yl)-2-fluorovinyl)-[1,1′-biphenyl]-3-yl)carbamoyl)-1-methyl-1,4,6,7-tetrahydro-5H-imidazo[4,5-c]pyridin-5-yl)ethyl) bicyclo[2.2. l]heptane-1-carboxylic acid]	147
COc1cc(/C(F)=C/c2cccc(-c3cccc(NC(=O)c4nc5c(n4C)CCN(CCC46CCC(C(=O)O)(CC4)C6)C5)c3Cl)c2Cl)ncc1CNC1CCC1 [Example 48, (Z)-4-(2-(2-((2,2′-dichloro-3′-(2-(5-((cyclobutylamino)methyl)-4-methoxypyridin-2-yl)-2-fluorovinyl)-[1,1′-biphenyl]-3-yl)carbamoyl)-1-methyl-1,4,6,7-tetrahydro-5H-imidazo[4,5-c]pyridin-5-yl)ethyl) bicyclo[2.2.1]heptane-1-carboxylic acid]	80.6
COc1cc(/C(F)=C/c2cccc(-c3cccc(NC(=O)c4nc5c(n4C)CCN(CCC46CCC(C(=O)O)(CC4)C6)C5)c3Cl)c2Cl)ncc1CNC1CCCC1 [Example 51, (Z)-4-(2-(2-((2,2′-dichloro-3′-(2-(5-((cyclopentylamino)methyl)-4-methoxypyridin-2-yl)-2-fluorovinyl)-[1,1′-biphenyl]-3-yl)carbamoyl)-1-methyl-1,4,6,7-tetrahydro-5H-imidazo[4,5-c]pyridin-5-yl)ethyl) bicyclor[2.2.1]heptane-1-carboxylic acid]	90.1
